A short description of data set [1]: physchem.
Description: Dissociation constant, basic pKa of the compound by UV spectrophotometry
Data set [2] can be described thus: physchem. This is another data set of the same source.
Description: Dissociation constant, acidic pKa of the compound by UV spectrophotometry

As for `O=S(=O)(O)Cc1ccc(Nc2c3ccccc3nc3ccccc23)cc1`, the pKa in “physchem [1]” is 7.64.

In the case of `O=C(O)COc1ccc(Nc2c3ccccc3nc3ccccc23)cc1`, in the data set “physchem [1]”, the pKa turned out to be 8.19.

As to `O=S(=O)(O)CCc1ccc(Nc2c3ccccc3nc3ccccc23)cc1`, the pKa in the data set “physchem [1]” was 7.77.

As for `O=C(O)c1cccc(Nc2c3ccccc3nc3ccccc23)c1`, the pKa in the data set “physchem [1]” is 7.62.

As to `O=C(O)c1ccc(Nc2c3ccccc3nc3ccccc23)cc1`, the figures for the pKa in “physchem [1]” and in “physchem [2]” were 7.17 and 4.2, respectively.

In the case of `O=C(O)/C=C/c1ccc(Nc2c3ccccc3nc3ccccc23)cc1`, the pKa in the data set “physchem [1]” worked out at 7.17.

As to `NC(=O)CCc1ccc(Nc2c3ccccc3nc3ccccc23)cc1`, the pKa in the data set “physchem [1]” was 7.63.

In the data set “physchem [1]”, `O=C(O)CCc1ccc(Nc2c3ccccc3nc3ccccc23)cc1` gave a pKa of 7.91.

In “physchem [1]”, `CS(=O)(=O)Nc1cccc(Nc2c3ccccc3nc3ccccc23)c1` returned a pKa of 6.85.

Regarding `Cc1cccc2c(Nc3ccc(NS(C)(=O)=O)cc3)c3ccccc3nc12`, the pKa in the data set “physchem [1]” was 7.15.

In the case of `NC(=O)c1ccc(Nc2c3ccccc3nc3ccccc23)cc1`, in the data set “physchem [1]”, the pKa stood at 6.47.

On to `NS(=O)(=O)c1ccc(Nc2c3ccccc3nc3ccccc23)cc1`, for which, in “physchem [1]”, the pKa came to 6.11.

`O=[N+]([O-])c1ccc(Nc2c3ccccc3nc3ccccc23)cc1`: the pKa in “physchem [1]” is 5.58.

For the compound `O=C(O)Cc1ccc(Nc2c3ccccc3nc3ccccc23)cc1`, the pKa in the data set “physchem [1]” was determined as 7.92.

In the case of `CC(=O)Nc1ccc2c(Nc3ccc(C(=O)O)cc3)c3ccccc3nc2c1`, the pKa in “physchem [1]” was determined as 7.42.

For the compound `NC(=O)Cc1ccc(Nc2c3ccccc3nc3ccccc23)cc1`, in “physchem [1]”, the pKa was 7.43.

In the case of `NS(=O)(=O)Cc1ccc(Nc2c3ccccc3nc3ccccc23)cc1`, in the data set “physchem [1]”, the pKa is 7.05.

In “physchem [1]”, `O=S(=O)(O)c1ccc(Nc2c3ccccc3nc3ccccc23)cc1` registered a pKa of 6.87.

In the data set “physchem [1]”, `N#Cc1ccc(Cc2c3ccccc3nc3ccccc23)cc1` gave a pKa of 5.93.

Regarding `COc1cc(C(=O)O)ccc1Nc1c2ccccc2nc2ccccc12`, the pKa in the data set “physchem [1]” amounted to 7.41.

In turn, `Nc1ccc2c(Nc3ccc(C(=O)O)cc3)c3ccccc3nc2c1` had a pKa in “physchem [1]” of 8.9.

In turn, `CS(=O)(=O)Nc1ccc(Nc2cc(N=[N+]=[N-])nc3ccccc23)cc1` returned a pKa in the data set “physchem [1]” of 7.

As to `CS(=O)(=O)Nc1ccc(Nc2c3ccccc3nc3c(C(N)=O)cccc23)cc1`, the pKa in the data set “physchem [1]” worked out at 6.12.

In turn, `O=C(O)c1ccccc1Nc1c2ccccc2nc2ccccc12` returned a pKa in “physchem [1]” of 7.28.

Regarding `O=C(O)Cc1cccc(Nc2c3ccccc3nc3ccccc23)c1`, the pKa in the data set “physchem [1]” was 7.82.

Regarding `O=C(O)Cc1ccccc1Nc1c2ccccc2nc2ccccc12`, in “physchem [1]”, the pKa is 8.12.

As for `NS(=O)(=O)CCc1ccc(Nc2c3ccccc3nc3ccccc23)cc1`, in the data set “physchem [1]”, the pKa was found to be 7.43.

In “physchem [1]”, `CC(=O)c1ccc(Cc2c3ccccc3nc3ccccc23)cc1` displayed a pKa of 6.12.

`Brc1ccc(Cc2c3ccccc3nc3ccccc23)cc1` showed a pKa in “physchem [1]” of 7.

In “physchem [1]”, `Clc1ccc(Cc2c3ccccc3nc3ccccc23)cc1` came in with a pKa of 7.06.

In the data set “physchem [1]”, `O=S(=O)(Nc1ccc(Cc2c3ccccc3nc3ccccc23)cc1)c1ccccc1` gave a pKa of 7.09.

In turn, `c1ccc(Cc2c3ccccc3nc3ccccc23)cc1` gave a pKa in the data set “physchem [1]” of 7.46.

The compound `CC(=O)Nc1ccc(Cc2c3ccccc3nc3ccccc23)cc1` gave a pKa in the data set “physchem [1]” of 7.51.

With `COC(=O)Nc1ccc(Cc2c3ccccc3nc3ccccc23)cc1`, the pKa in the data set “physchem [1]” amounted to 7.64.

With `Cc1ccc(Cc2c3ccccc3nc3ccccc23)cc1`, the pKa in “physchem [1]” amounted to 7.72.

With `CNC(=O)Nc1ccc(Cc2c3ccccc3nc3ccccc23)cc1`, in “physchem [1]”, the pKa came to 7.77.

Turning to `COc1ccc(Cc2c3ccccc3nc3ccccc23)cc1`, in “physchem [1]”, the pKa came out at 7.94.

For `Nc1ccc(Cc2c3ccccc3nc3ccccc23)cc1`, the pKa in the data set “physchem [1]” came to 8.36.

Take `COc1cc(NS(C)(=O)=O)ccc1Cc1c2ccccc2nc2cc([N+](=O)[O-])ccc12`: in the data set “physchem [1]”, the pKa is 5.72.

In the data set “physchem [1]”, `COc1cc(NS(C)(=O)=O)ccc1Cc1c2ccc([N+](=O)[O-])cc2nc2cc([N+](=O)[O-])ccc12` displayed a pKa of 3.82.

As to `COc1cc(NS(C)(=O)=O)ccc1Cc1c2c(nc3ccccc13)CC(=N)C=C2`, in “physchem [1]”, the pKa was 5.53.

As to `COc1cc(NS(C)(=O)=O)ccc1Cc1c2c(nc3ccccc13)C(=N)CC=C2`, in “physchem [1]”, the pKa came out at 6.09.

Turning to `CS(=O)(=O)Nc1ccc(Nc2c3ccccc3nc3cc(I)ccc23)cc1`, the pKa in the data set “physchem [1]” worked out at 6.52.

In “physchem [1]”, `COC(=O)c1ccc(Nc2c3ccccc3nc3ccccc23)cc1` displayed a pKa of 6.21.

`CN(c1ccc(Nc2c3ccccc3nc3ccccc23)cc1)S(C)(=O)=O` had a pKa in the data set “physchem [1]” of 6.95.

Compound `CC(=O)Nc1ccc2c(Nc3ccc(NS(C)(=O)=O)cc3)c3ccccc3nc2c1` came in with a pKa in the data set “physchem [1]” of 7.34.

With `COc1cc(NS(C)(=O)=O)ccc1Nc1c2ccccc2nc2ccccc12` [AMSACRINE], in the data set “physchem [1]”, the pKa was found to be 7.43.

These data come from ChEMBL document CHEMBL3271983, “Potential antitumor agents. 26. Anionic congeners of the 9-anilinoacridines” (J Med Chem, 1978).
